Measured values reported in patent US12097190B2, “Therapeutic use of levorotatory β-lactams in hematopoiesis, immuno-oncology therapy, and regulation of lipoprotein and apolipoprotein levels” (Alpha-1 Biologics, LLC, priority 2017, dated 2024).

Key:
[1] = target: T1, cell surface human leukocyte elastase (HLE-CS) (Homo sapiens, UniProt P08246); experiment: Adherence of U937 cells to compound-coated glass (binding to HLE-CS); assay type: cell-based; details: 2,000 U937 cells added per compound-treated well; for Adherent Cells: at optimal adherence concentration
T1 construct: endogenous in cells
T1 sequence (P08246 30-267): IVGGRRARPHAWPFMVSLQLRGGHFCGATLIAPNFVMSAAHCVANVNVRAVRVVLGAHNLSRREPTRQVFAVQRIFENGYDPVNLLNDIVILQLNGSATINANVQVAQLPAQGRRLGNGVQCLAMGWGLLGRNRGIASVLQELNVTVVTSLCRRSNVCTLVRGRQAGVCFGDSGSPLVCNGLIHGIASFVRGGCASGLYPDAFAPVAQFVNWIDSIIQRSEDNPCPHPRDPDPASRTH
Text: Adherence is the first step in cell migration and requires […] calcium, magnesium, signaling, or energy. […] […] After washing and fixing the cells, the number of adherent cells were counted microscopically.

[2] = target: T2, soluble, granule-associated human leukocyte elastase (HLE-G) (Homo sapiens, UniProt P08246); experiment: Inhibition of soluble human leukocyte elastase (HLE-G), SA3NA substrate, 405 nm; assay type: biochemical; details: for IC50: IC50 of compound versus HLE-G (75 μM); for Molar Excess**: Molar excess of compound to HLE-G at IC50
T2 sequence (P08246 30-267): T1 sequence (P08246 30-267)
Method: The procedures for measuring the capacity of substances to inhibit soluble forms of elastase or HLE-G are well known to those of ordinary skill in the art (U.S. Pat. No. 6,887,678; Bristow et al., 1998). Briefly, soluble human leukocyte elastase (HLE-G) is incubated for 2 minutes with a test substance, and to this mixture is added the elastase substrate succinic-L-Ala-L-Ala-L-Ala-p-nitroanilide (SA3NA, Sigma-Aldrich). Results are detected by measuring the color change at 405 nm.
Assay 1: Inhibition of HLE (microplate assay, 10 tests per plate) as described in Example 2 above and previously published (Bristow et al., 1998).

E. coli DH5-Alpha = experiment: Kirby-Bauer Disk Test, zones of inhibition; assay type: cell-based; details: for zone of inhibition at 5000 µM: 5 mM
Method: […] At this concentration of cells, bacteria were spread on Mueller-Hinton agar plates. […] After incubation for 16 hours at 37° C., plates were examined for zones of inhibition.

LDL = experiment: Diet-induced obesity (DIO) mouse model, serum LDL levels; assay type: in vivo; details: week 6, normalized to vehicle
Method: The well-known Jackson Laboratory (Bar Harbor, Me.) C57BL/6 Diet-Induced Obesity (DIO) mouse model represents human metabolic syndrome and elevated LDL levels. Mice are fed a high fat diet (60% fat) or normal diet (10% fat) for various periods of time and lipoprotein levels were measured. […] In accordance with a protocol used in a recently conducted human clinical trial (NCT01731691), mouse peripheral blood was collected into blood collection tubes, and serum was analyzed for lipoprotein levels using Beckman Coulter AU680 Chemistry System. In addition, cells were analyzed by flow cytometry to quantitate lymphocyte subsets including CD3, CD4, and CD8. As compared to baseline levels (before treatment), lipoprotein levels (including, but not limited to total cholesterol, HDL, LDL, apoA, apoB, apoC, apoE) and blood cells expressing the above mentioned cellular markers were quantitated to determine changes due to treatment. Diet-induced obesity mice (DIO, Jackson Laboratory) were fed a 60% fat diet for 17 weeks. […] Because mice were maintained on the DIO diet throughout the study, body weight and LDL levels increased in the vehicle control (Group 1). To compare the effectiveness of compounds, mean values within each treatment group were normalized by forming a ratio to mean values of vehicle, and the ratio was expressed as normalized % change using to the formula: 100−(Treatment mean/Vehicle mean*100).

U937 Clone 10 cells = experiment: Receptor polarization, cell migration and SHIV endocytosis in preconditioned cells; assay type: cell-based, human
Method: The procedures for inducing receptor polarization have been described (Bristow et al., 2003).
To examine receptor polarization, microscope slides are prepared by adding serial dilutions of a β-lactams. Cells are added to the microscope slides and incubated for 30 minutes in humidified 5% CO2 at 37° C. Unattached cells are removed by washing, and attached cells are fixed by application of 4% paraformaldehyde after which attached cells are counted by light microscopy and photographed using confocal microscopy
Receptor Polarization: U937 Clone 10 cells were cultured overnight in AIM-V serum-free medium. Cells were pelleted, re-suspended in AIM-V at 2×10^6/ml, and 250 μl (5×10^5 cells) was added to Eppendorf tubes pre-coated to prevent attachment.
Binding and Endocytosis: AT 2 chemically inactivated SHIV preparations, consisting of non-infectious virus with conformationally and functionally intact envelope glycoproteins, were provided by the AIDS Vaccine Program (SAIC Frederick, Frederick, Md.). Cells were pulsed with virus (30 ng p27 or p24 per 10^6 cells) for 2 hr. at 2° C. which allows binding, but prevents endocytosis. Alternatively, cells were pulsed with virus for 2 hr. at 37° C. which allows binding and endocytosis. Following pulsing for 2 hr., cells were mounted on Alcian blue slides for microscopy. The presence of inactivated virus in test cells was detected using dodecameric human CD4+-IgG1 provided by the Laboratory of Immunoregulation, NIAID, NIH. This reagent specifically recognizes conformationally intact HIV 1/SIV envelope gp120. CD4-IgG1 was detected using HRP-conjugated Rb anti-human IgG (Sigma). CD4+ IgG-labeled cells were coupled to Oregon 488 fluorochrome using the tyramide signal amplification system (Life Science Products, Boston, Mass., USA). […] Cells were analyzed using 2 μm scanning from 3B.

T lymphocytes = experiment: Effect on T cell numbers in C57BL6 mice, flow cytometry; assay type: in vivo, mouse; details: 5 mg/kg oral gavage, 2 weeks of treatment, change from baseline
Method: Compounds were delivered by oral gavage 5 days per week. Blood was collected weekly for detection of CD3e, CD4, and CD8a T cells by flow cytometry using the mouse T lymphocyte subset antibody cocktail with isotype control (BD Biosciences). The study was performed at the Division of Laboratory Animal Research, Stony Brook University, Stony Brook, N.Y. Staining and statistical analysis was performed by Alpha-1 Biologics, and the samples were acquired by the Flow Cytometry Laboratory, Stony Brook Hospital, using a BD LSRFortessa instrument. […] Data were normally distributed and compared using Student's T-test. Mean % Change in CD3+ T cells for vehicle was −11% and for CD4+CD8+ progenitors was −13%. […] Average percent change from baseline is represented in FIGS. 6A and 6B where % change=100×[(Treatment Mean-Baseline)/Baseline].

[3] = tested on: HIV permissive (plus) clone 10; experiment: Adherence assay on coverslips, U937 plus clone 10; assay type: cell-based, human
Method: To coverslips prepared with chemoattractants as described above, 10^6 cells in 90 μl HBSS were mixed to uniformity, and incubated for 30 min in humidified 5% CO2 at 37° C. without dehydration. To detect interacting effects of stimulants, cells were delivered in an 80 μl volume to coverslips previously prepared with 10 μl of one stimulant, mixed to uniformity, and incubated for 15 min at 37° C. Subsequently, an additional stimulant was delivered in a 10 μl volume to each coverslip, mixed with pre-incubated cells to uniformity, and incubated for 30-60 min at 37° C. […] Slides were examined by epi-illumination UV microscopy on a Zeiss Axioskop Means and standard deviations were determined by counting adherent cells in at least three fields/coverslip.
Means and standard deviations represent the difference between stimulated and unstimulated adherence. […] Adherence was optimized for each chemoattractant and adherence induced by each chemoattractant was enumerated in more than three separate experiments.

elastase = details: inhibition of elastase activity as described in the package insert; cited from earlier work
[4] = Escherichia coli, DH5ALPHA, 10 μl per disk, 16 hours at 37° C., read-out: diameter of zone of inhibition

Compound	Optimal Adherence Concentration (nM)*** [1]	Adherent Cells [1]	IC50 [2]	Molar Excess** [2]	also measured
CC1(C)S[C@@H]2[C@H](NC(=O)[C@H](N)c3ccc(O)cc3)C(=O)N2[C@H]1C(=O)O [Amoxicillin]	1 nM	54 ± 20	–	–	–
C[C@H]1[C@H](NC(=O)/C(=N\OC(C)(C)C(=O)O)c2csc(N)n2)C(=O)N1S(=O)(=O)O [Aztreonam]	1 nM	33 ± 4	234 µM	3.1	–
CO/N=C(\C(=O)N[C@@H]1C(=O)N2C(C(=O)O)=C(COC(N)=O)CS[C@H]12)c1ccco1 [Cefuroxine, Cefuroxime]	1 nM	34 ± 8	167 µM	2.2	–
CC1=C(C(=O)O)N2C(=O)[C@@H](NC(=O)[C@H](N)c3ccccc3)[C@H]2SC1 [Cephalexin]	10 nM	27 ± 10	–	–	–
CC1(C)S[C@@H]2[C@H](NC(=O)[C@H](N)c3ccccc3)C(=O)N2[C@H]1C(=O)O [D-Ampicillin, Ampicillin]	–	–	–	–	activity in the Kirby-Bauer Disk Test (E. coli DH5-Alpha; 0.5 mM): exhibits activity; zone of inhibition at 500 µM (E. coli DH5-Alpha; Escherichia coli, DH5ALPHA, 0.5 mM, 10 μl per disk, 16 hours at 37° C., read-out: diameter of zone of inhibition): 15 mm; zone of inhibition at 5000 µM (E. coli DH5-Alpha; [4]): 30 mm
Cc1onc(-c2c(Cl)cccc2Cl)c1C(=O)N[C@@H]1C(=O)N2[C@@H]1SC(C)(C)[C@@H]2C(=O)O [Dicloxacillin]	1 nM	26 ± 9	232 µM	3.1	–
C[C@@H](O)[C@H]1C(=O)N2C(C(=O)O)=C(S[C@@H]3CN[C@H](CNS(N)(=O)=O)C3)[C@H](C)[C@H]12 [Doripenem]	100 nM	52 ± 6	178 µM	2.4	–
O=C1[C@H](CC[C@H](O)c2ccc(F)cc2)[C@@H](c2ccc(O)cc2)N1c1ccc(F)cc1 [Ezetimibe]	100 nM	40 ± 3	277 µM	3.7	normalized mean % change in LDL (LDL; 10 mg/kg oral gavage 5 days per week): −43.8±29.6%
C[C@@H](O)[C@H]1C(=O)N2C(C(=O)O)=C([C@H]3CCCO3)S[C@H]12 [Faropenem]	10 nM	23 ± 4	203 µM	2.7	–
CC1(C)SC2C(NC(=O)C(N)c3ccccc3)C(=O)N2C1C(=O)O [L-Ampicillin, (2S,5R,6R)-6-((S)-2-amino-2 phenylacetamcido)-3,3-dimethyl-7-oxo-4-thia-1-azabicyclo[3.2.0] heptane-2-acid]	–	–	–	–	activity in the Kirby-Bauer Disk Test (E. coli DH5-Alpha; 0.5 mM): ineffective as an antibiotic; zone of inhibition at 5000 µM (E. coli DH5-Alpha; [4]): 14 mm; cell motility (morphology by confocal microscopy) (U937 Clone 10 cells): exhibited the morphology of cells undergoing cell motility; receptor polarization (U937 Clone 10 cells): induces receptor polarization; cell migration and endocytosis (SHIV) (U937 Clone 10 cells; FIGS. 3A and 3B): stimulation of cell migration and endocytosis; normalized mean % change in LDL (LDL; 5 mg/kg oral gavage 5 days per week): −41.0±20.5%; normalized mean % change in LDL (LDL; 50 mg/kg oral gavage 5 days per week): 3.7%; Mean % Change in CD3+ T cells (T lymphocytes): +16%; Mean % Change in CD4+CD8+ progenitors (T lymphocytes): +38%
CC1(C)S[C@@H]2[C@H](NC(=O)COc3ccccc3)C(=O)N2[C@H]1C(=O)O [Pen V, Penicillin V]	10 nM	30 ± 4	262 µM	3.5	–
MAAPVCK [methoxysuccinyl-L-Ala-L-Ala-L-Pro-L-Val-chloromethylketone]	–	–	–	–	stimulation of adherence [3]: stimulated to adhere
N-tosyl-L-phenylalanine chloromethylketone [TPCK]	–	–	–	–	stimulation of adherence [3]: stimulated to adhere
PROLASTIN-C®: human α1PI, cryoprecipitate preparation isolated from human plasma (Grifols)	–	–	–	–	specific activity (elastase): 70%
Phe-Leu-Gly-Phe-Leu (FLGFL; printed: Phe-Leu-Gly-Phe-Leu) [synthetic peptide representative of the HIV fusion domain]	–	–	–	–	stimulation of adherence [3]: stimulated to adhere
